In US11878975B2, “Substituted indole compounds useful as TLR inhibitors” (BRISTOL-MYERS SQUIBB COMPANY, priority 2017, dated 2024):
pIC50: −log10 of the molar value.

Key:
Assay type in all cases: cell-based
[1] = target: T1, human TLR7 (Homo sapiens, UniProt Q9NYK1); test: TLR7 inhibition reporter assay (HEK-Blue cells, SEAP reporter, gardiquimod stimulation); details: HEK-Blue cells overexpressing human TLR7, SEAP reporter, gardiquimod 7.5 μM
T1 construct: host or cells: HEK-Blue cells
T1 sequence (Q9NYK1 27-1049): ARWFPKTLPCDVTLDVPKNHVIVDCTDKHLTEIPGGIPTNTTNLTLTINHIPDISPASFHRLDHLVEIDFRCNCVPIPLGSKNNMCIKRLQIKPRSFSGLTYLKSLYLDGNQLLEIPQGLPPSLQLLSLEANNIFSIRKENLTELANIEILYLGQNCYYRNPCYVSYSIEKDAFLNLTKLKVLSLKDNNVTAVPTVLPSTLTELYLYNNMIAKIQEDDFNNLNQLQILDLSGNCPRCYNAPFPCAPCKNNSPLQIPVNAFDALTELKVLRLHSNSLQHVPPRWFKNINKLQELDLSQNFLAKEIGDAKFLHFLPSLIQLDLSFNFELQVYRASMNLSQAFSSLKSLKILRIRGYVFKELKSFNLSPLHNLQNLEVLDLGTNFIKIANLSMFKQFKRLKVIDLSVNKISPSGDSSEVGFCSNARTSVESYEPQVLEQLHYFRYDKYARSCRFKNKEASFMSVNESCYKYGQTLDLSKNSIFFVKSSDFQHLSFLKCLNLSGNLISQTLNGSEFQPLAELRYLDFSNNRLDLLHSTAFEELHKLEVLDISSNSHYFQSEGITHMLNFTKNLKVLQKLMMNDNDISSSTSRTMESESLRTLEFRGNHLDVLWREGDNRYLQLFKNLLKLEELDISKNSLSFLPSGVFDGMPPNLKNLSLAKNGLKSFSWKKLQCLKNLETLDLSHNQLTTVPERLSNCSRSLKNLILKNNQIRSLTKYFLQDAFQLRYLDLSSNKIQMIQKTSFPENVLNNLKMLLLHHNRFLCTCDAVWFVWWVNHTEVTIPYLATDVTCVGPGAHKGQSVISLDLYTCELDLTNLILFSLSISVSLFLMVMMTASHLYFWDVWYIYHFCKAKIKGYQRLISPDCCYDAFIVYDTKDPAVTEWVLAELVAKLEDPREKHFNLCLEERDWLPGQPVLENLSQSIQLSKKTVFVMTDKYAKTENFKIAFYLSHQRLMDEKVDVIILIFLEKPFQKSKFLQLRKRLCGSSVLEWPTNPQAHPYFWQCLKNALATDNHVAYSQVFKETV
In short: (§1)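 HEK-Blue cells with NF-κB/AP-1-driven SEAP reporter, pre-treated 30 min at room temperature with compound (0.05 nM-50 μM). Stimulants: gardiquimod 7.5 μM (TLR7), R848 15.9 μM (TLR8) or ODN2006 5 nM (TLR9). SEAP measured after 22 h at 37° C.; percent inhibition versus agonist-plus-DMSO and known-inhibitor wells.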

[2] = target: T2, human TLR8 (Homo sapiens, UniProt Q9NR97); test: TLR8 inhibition reporter assay (HEK-Blue cells, SEAP reporter, R848 stimulation); details: HEK-Blue cells overexpressing human TLR8, SEAP reporter, R848 15.9 μM
T2 construct: host or cells: HEK-Blue cells
T2 sequence (Q9NR97 27-1041): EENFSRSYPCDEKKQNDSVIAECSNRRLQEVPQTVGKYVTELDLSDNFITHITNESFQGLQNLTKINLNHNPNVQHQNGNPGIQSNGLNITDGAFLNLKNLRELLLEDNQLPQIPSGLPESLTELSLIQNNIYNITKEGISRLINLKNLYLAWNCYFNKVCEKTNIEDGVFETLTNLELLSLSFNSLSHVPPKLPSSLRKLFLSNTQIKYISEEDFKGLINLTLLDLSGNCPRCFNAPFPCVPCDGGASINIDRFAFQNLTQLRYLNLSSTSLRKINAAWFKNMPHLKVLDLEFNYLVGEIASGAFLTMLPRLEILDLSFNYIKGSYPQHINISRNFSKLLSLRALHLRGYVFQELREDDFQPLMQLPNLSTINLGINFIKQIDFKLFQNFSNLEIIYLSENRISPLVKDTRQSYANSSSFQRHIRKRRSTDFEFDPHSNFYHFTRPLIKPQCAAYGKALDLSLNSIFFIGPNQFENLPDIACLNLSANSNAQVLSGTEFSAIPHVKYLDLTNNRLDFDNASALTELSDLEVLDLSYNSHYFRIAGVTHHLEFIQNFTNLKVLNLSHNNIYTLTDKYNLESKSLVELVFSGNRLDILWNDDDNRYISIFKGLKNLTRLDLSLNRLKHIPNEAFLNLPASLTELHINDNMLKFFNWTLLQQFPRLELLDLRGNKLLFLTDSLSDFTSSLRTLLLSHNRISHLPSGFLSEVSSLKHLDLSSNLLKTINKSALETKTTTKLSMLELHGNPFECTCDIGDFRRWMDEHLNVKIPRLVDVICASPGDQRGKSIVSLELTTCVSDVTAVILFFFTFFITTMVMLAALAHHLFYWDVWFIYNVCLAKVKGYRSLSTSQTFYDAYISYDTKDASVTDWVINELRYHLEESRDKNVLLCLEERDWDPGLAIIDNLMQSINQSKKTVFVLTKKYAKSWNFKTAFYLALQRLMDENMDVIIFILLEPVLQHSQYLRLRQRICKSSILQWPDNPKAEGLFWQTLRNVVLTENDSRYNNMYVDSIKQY
In short: as §1

[3] = target: T3, human TLR9 (Homo sapiens, UniProt Q9NR96); test: TLR9 inhibition reporter assay (HEK-Blue cells, SEAP reporter, ODN2006 stimulation); details: HEK-Blue cells overexpressing human TLR9, SEAP reporter, ODN2006 5 nM
T3 construct: host or cells: HEK-Blue cells
T3 sequence (Q9NR96 26-1032): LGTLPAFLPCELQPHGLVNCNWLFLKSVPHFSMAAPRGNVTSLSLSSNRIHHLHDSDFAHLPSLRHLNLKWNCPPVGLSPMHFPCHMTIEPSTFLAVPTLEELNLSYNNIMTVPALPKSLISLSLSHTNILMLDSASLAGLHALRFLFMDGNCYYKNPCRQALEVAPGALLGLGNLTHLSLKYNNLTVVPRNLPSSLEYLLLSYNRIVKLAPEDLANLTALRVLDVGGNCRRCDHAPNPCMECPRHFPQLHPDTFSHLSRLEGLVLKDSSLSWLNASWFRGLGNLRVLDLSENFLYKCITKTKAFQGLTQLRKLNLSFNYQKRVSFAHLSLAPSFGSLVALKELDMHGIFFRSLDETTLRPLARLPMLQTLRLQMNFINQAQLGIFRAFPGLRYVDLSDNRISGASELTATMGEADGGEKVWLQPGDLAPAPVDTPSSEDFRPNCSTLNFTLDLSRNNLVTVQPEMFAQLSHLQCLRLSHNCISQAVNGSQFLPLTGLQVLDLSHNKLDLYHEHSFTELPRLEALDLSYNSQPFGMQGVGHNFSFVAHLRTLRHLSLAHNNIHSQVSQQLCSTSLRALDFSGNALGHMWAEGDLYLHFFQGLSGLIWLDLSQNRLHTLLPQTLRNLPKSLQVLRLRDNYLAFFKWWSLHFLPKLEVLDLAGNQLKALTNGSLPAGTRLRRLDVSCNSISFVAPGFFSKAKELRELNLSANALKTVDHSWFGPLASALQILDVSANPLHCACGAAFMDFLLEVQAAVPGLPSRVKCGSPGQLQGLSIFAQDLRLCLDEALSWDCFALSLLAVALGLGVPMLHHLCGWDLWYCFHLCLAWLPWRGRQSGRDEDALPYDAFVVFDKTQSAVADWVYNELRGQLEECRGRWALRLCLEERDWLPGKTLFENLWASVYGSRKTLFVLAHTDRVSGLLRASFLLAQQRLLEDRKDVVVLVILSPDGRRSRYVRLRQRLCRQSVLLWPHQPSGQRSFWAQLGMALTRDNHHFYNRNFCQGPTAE
In short: as §1

| SMILES | pIC50 [1] | pIC50 [2] | pIC50 [3] |
| --- | --- | --- | --- |
| CCc1c(-c2ccnc(C)c2)[nH]c2ccc(CC3CCCN3)cc12 (stereo not drawn) [Example 420] | 6.51 | 7.42 | 5.98 |
| Cc1cc(-c2[nH]c3ccc(C4CN(CC(=O)N(C)C)C(C)(C)CO4)cc3c2C(C)C)cn2ncnc12 (single isomer, unassigned) [Example 379, 2-(2-(3-isopropyl-2-(8-methyl-[1,2,4]triazolo[1,5-a]pyridin-6-yl)-1H-indol-5-yl)-5,5-dimethylmorpholino)-N,N-dimethylacetamide] | 7.92 | 7.15 | 5.27 |
| Cc1cc(-c2[nH]c3ccc(C4CCCNC4)cc3c2C(C)C)ccn1 (stereo not drawn) [Example 184] | 7.92 | 8.42 | 6.06 |
| COc1cc(-c2[nH]c3ccc(C4CCCN(C5COC5)C4)cc3c2C(C)C)cn2ncnc12 (stereo not drawn) [Example 242] | 8.10 | 8.62 | 4.59 |
| Cc1c(-c2[nH]c3ccc(C4CCC(NCC(C)(C)O)CC4)cc3c2C(C)C)cn2ncnc2c1C (stereo not drawn) [Example 112] | 8.22 | 8.70 | 5.63 |
| Cc1c(-c2[nH]c3ccc(C4CN(CC(=O)N(C)C)C(C)(C)CO4)cc3c2C(C)C)cn2ncnc2c1C (stereo not drawn) [Example 387] | 7.07 | 7.36 | < 4.30 |
| COc1cc(-c2[nH]c3ccc(C4CCC(N5CCCC(F)(F)C5)CC4)cc3c2C(C)C)cn2ncnc12 (stereo not drawn) [Example 35] | 7.26 | 6.91 | 4.75 |
| Cc1c(-c2[nH]c3ccc(C4CCC(NCC(=O)N(C)C)CC4)cc3c2C(C)C)cn(C)c(=O)c1C (stereo not drawn) [Example 480] | 7.70 | 8.20 | 5.21 |
| COc1ccc(-c2[nH]c3ccc(C4CCCN(CC(=O)N(C)C)C4)cc3c2C(C)C)cc1OC (stereo not drawn) [Example 227] | 6.81 | 7.29 | 5.42 |
| CNC(=O)CN1CCOC(c2ccc3[nH]c(-c4cn5ncnc5c(C)c4C)c(C(C)C)c3c2)C1 (stereo not drawn) [Example 311] | 7.77 | 7.42 | < 4.30 |

The remaining compounds from weak to strong by pIC50 [1], led by results:

| pIC50 [1] | pIC50 [2] | pIC50 [3] | SMILES |
| --- | --- | --- | --- |
| 8.22 | 7.92 | 5.06 | COCCN1CCOC(c2ccc3[nH]c(-c4cc(OC)c5ncnn5c4)c(C(C)C)c3c2)C1 (stereo not drawn) [Example 345] |
| 8.30 | 8.46 | 5.39 | Cc1c(-c2[nH]c3ccc(C4CCC(NC5CC5)CC4)cc3c2C(C)C)cn2ncnc2c1C (stereo not drawn) [Example 14] |
| 8.30 | 7.92 | 4.68 | Cc1c(-c2[nH]c3ccc(C4CN(C5COC5)C4)cc3c2C(C)C)cn2ncnc2c1C [Example 544] |
| 8.40 | 7.70 | 6.29 | Cc1cc(-c2[nH]c3ccc(C4CCC(N(C)C)CC4)cc3c2C(C)C)cc(C)n1 (single isomer, unassigned) [Example 114] |
| 8.40 | 8.14 | 4.49 | Cc1c(-c2[nH]c3ccc(C4CN(CC#N)C4)cc3c2C(C)C)cn2ncnc2c1C [Example 553] |
| 8.52 | 7.96 | 5.10 | CNCC(=O)N1CCCC(c2ccc3[nH]c(-c4cc(OC)c5ncnn5c4)c(C(C)C)c3c2)C1 (stereo not drawn) [Example 211, 1-(3-(3-isopropyl-2-(8-methoxy-[1,2,4]triazolo[1,5-a]pyridin-6-yl)-1H-indol-5-yl)piperidin-1-yl)-2-(methylamino)ethan-1-one] |
| 8.52 | 8.59 | 5.32 | Cc1c(-c2[nH]c3ccc(C4CCC(N(C)C)CC4)cc3c2C(C)C)cn(C)c(=O)c1C (stereo not drawn) [Example 476] |
| 9.00 | 9.49 | 4.51 | COc1cc(-c2[nH]c3ccc(C4CC(N(C)CCS(C)(=O)=O)C4)cc3c2C(C)C)cn2ncnc12 (stereo not drawn) [Example 583] |
| 9.03 | 9.05 | 5.46 | COc1cc(-c2[nH]c3ccc(C4CC(NCC(=O)N(C)C)C4)cc3c2C(C)C)cn2ncnc12 (stereo not drawn) [Example 570] |
| 9.31 | 8.89 | 6.10 | COc1cc(-c2[nH]c3ccc(C4CCC(N)CC4)cc3c2C(C)C)cn2ncnc12 (single isomer, unassigned) [Example 1, 4-(3-isopropyl-2-(8-methoxy-[1,2,4]triazolo[1,5-a]pyridin-6-yl)-1H-indol-5-yl) cyclohexanamine] |
| 9.42 | 8.60 | 5.20 | Cc1cc(-c2[nH]c3ccc(C4CCC(C(=O)N5CCN(C)CC5)CC4)cc3c2C(C)C)cn2ncnc12 (single isomer, unassigned) [Example 157] |
| 9.52 | 8.92 | 5.89 | COCCN(C)C1CCC(c2ccc3[nH]c(-c4cc(OC)c5ncnn5c4)c(C(C)C)c3c2)CC1 (single isomer, unassigned) [Example 72] |
| 9.77 | 9.09 | 5.86 | CNC1CCC(c2ccc3[nH]c(-c4cc(C)c5ncnn5c4)c(C(C)C)c3c2)CC1 (single isomer, unassigned) [Example 56] |
